# Laboratory results as given in patent US8883797B2, “Metalloenzyme inhibitor compounds” (Viamet Pharmaceuticals, Inc., priority 2011, dated 2014).
# What was measured:
# [1] = system: Septoria tritici (ATCC 26517); assay: Minimum Inhibitory Concentration (MIC) (Septoria tritici), CLSI-based microdilution; format: cell-based; conditions: Zymoseptoria tritici, ATCC26517, 168 h; S. tritici ATCC 26517; 50% growth reduction; 7 days at 22 °C; read-out: Septoria Rating (MIC)
# Description: C. Minimum Inhibitory Concentration (MIC) (Septoria tritici) Compounds of the present disclosure were assessed for their ability to inhibit the growth of a common strain of the fungal plant pathogen Septoria tritici (ATCC 26517) using a procedure based on a Clinical and Laboratory Standards Institute (CLSI) microdilution assay protocol for filamentous fungi. Stock solutions of the test compounds and standards were prepared in DMSO at 6400 μg/mL. Each stock solution was used to prepare a 2-fold dilution series ranging from 16 to 0.016 μg/mL (total of 11 compound concentrations) in RPMI-1640 (Roswell Park Memorial Institute) medium containing 3-(N-morpholino)propanesulfonic acid (MOPS) buffer and 2% DMSO. A 100 μL aliquot of the dilutions was added to columns 1 (16 μg/mL compound) through 11 (0.016 μg/mL compound) of a 96-well microtiter plate. This format was replicated in a second row of the microtiter plate. Thus, each microtiter plate could include 11 concentrations of four test or control compounds replicated twice. A 100 μL aliquot of RPMI-1640/MOPS/2% DMSO medium was added to column 12 (no compound control) of the microtiter plate. A fresh culture of S. tritici was used to prepare a solution of approximately 5×10^4 colony-forming units per milliliter (cfu/mL) in RPMI/MOPS medium without DMSO. A 100 μL aliquot of this solution was added to all 96 wells in the microtiter plate. […] The assay plates were incubated at 22° C. for seven days in the dark without shaking. […] In each case of Table 3 the rating scale is as follows: […]
# [2] = system: Puccinia recondita tritici; assay: Fungicidal activity vs. leaf rust on wheat plants (PUCCRT); format: in vivo, Puccinia recondita tritici=Puccinia triticina; conditions: 50 ppm spray on wheat (variety Yuma); inoculated the following day; severity evaluated 7-9 days later
# Description: D. Evaluation of Fungicidal Activity Vs. Leaf Rust (Causal Agent Puccinia recondita tritici=Puccinia triticina; Bayer Code PUCCRT).
# Each pot contained 3-8 seedlings. These plants were sprayed until wet with the formulated test compounds. The compounds were formulated at 50 ppm in 10 vol. % acetone plus 90 vol. % Triton X water (deionized water 99.99 wt %+0.01 wt % Triton X100), giving a “formulated test compound.” Formulated test compounds were applied to plants using a turn table sprayer fitted with two opposing air atomization nozzles which delivered approximately 1500 L/ha of spray volume. On the following day, the leaves were inoculated with an aqueous spore suspension of Puccinia recondita tritici and the plants were kept in high humidity overnight to permit spores to germinate and infect the leaf. The plants were then transferred to a greenhouse until disease developed on untreated control plants. Disease severity was evaluated 7-9 days later, depending on the speed of disease development. Compounds 4(−), 9(+), 11, 13, 18, 21, 25, 26, 27, 28, 32, 34, 37, 38, 39, 42, 43, 48, 51, 52, 56, 57, and 59 were selected for testing against PUCCRT at 50 ppm. Compounds that provided >80% disease control at 50 ppm included 4(−), 9(+), 11, 13, 18, 21, 25, 26, 27, 28, 32, 34, 37, 38, 39, 42, 43, 48, 52, 56, and 57.
# [3] = system: C. albicans; assay: Minimum Inhibitory Concentration (MIC) (C. albicans), CLSI M27-A2; format: cell-based; conditions: Candida albicans; about 50% growth reduction; approx. 48 h at 35 °C
# Description: A. Minimum Inhibitory Concentration (MIC) (C. albicans) Compounds of the present disclosure were assessed for their ability to inhibit the growth of common strains of fungus, C. albicans using a standardized procedure (CLSI M27-A2). Stock solutions of the test compounds and standards were prepared in DMSO at 1,600 μg/mL (C. albicans). Eleven, serial, one-half dilutions of compounds were prepared in 96-well plates in RPMI+MOPS. The assay concentration ranges were 8-0.001 μg/mL (C. albicans). Cell suspensions of C. albicans were prepared and added to each well at concentrations of approximately 3.7×10^3 colony-forming-units per milliliter (cfu/mL). All testing was in duplicate. The inoculated plates were incubated for approximately 48 h at 35±1° C. At the completion of incubation the wells of each plate were evaluated visually for the presence of fungal growth. […] For QC purposes C. krusei isolate ATCC 6258 (4.0×10^3 cfu/mL) was included in the VOR assay.
SMILES,MIC [1] [µg/mL],MIC [3] [µg/mL],disease control [2] [%]
"OC(Cn1cnnn1)(c1ccc(F)cc1F)C(F)(F)c1cc2ccc(Cl)cc2cn1 (stereo not drawn) [Compound 37, 1-(7-Chloroisoquinolin-3-yl)-2-(2,4-difluorophenyl)-1,1-difluoro-3-(1H-tetrazol-1-yl)propan-2-ol]",≤ 0.5,,> 80
"OC(Cn1cnnn1)(c1ccc(Cl)cc1F)C(F)(F)c1cnc2cc(Cl)ccc2n1 (stereo not drawn) [Compound 34, 2-(4-Chloro-2-fluorophenyl)-1-(6-chloroquinoxalin-2-yl)-1,1-difluoro-3-(1H-tetrazol-1-yl)propan-2-ol]",≤ 0.5,,> 80
"OC(Cn1cnnn1)(c1ccc(F)cc1)C(F)(F)c1ccc2cc(Cl)ccc2n1 (stereo not drawn) [Compound 32, 1-(6-Chloroquinolin-2-yl)-1,1-difluoro-2-(4-fluorophenyl)-3-(1H-tetrazol-1-yl)propan-2-ol]",≤ 0.5,,> 80
"OC(Cn1cnnn1)(c1ccc(F)cc1F)C(F)(F)c1cnc(CCc2ccc(F)cc2)cn1 (stereo not drawn) [Compound 52, 2-(2,4-Difluorophenyl)-1,1-difluoro-1-(5-(4-fluorophenethyl)pyrazin-2-yl)-3-(1H-tetrazol-1-yl)propan-2-ol]",≤ 0.5,,> 80
"OC(Cn1cnnn1)(c1ccc(F)cc1F)C(F)(F)c1ccc2cc(OC(F)(F)F)ccc2n1 (stereo not drawn) [Compound 21, 2-(2,4-Difluorophenyl)-1,1-difluoro-3-(1H-tetrazol-1-yl)-1-(6-(trifluoromethoxy)quinolin-2-yl)propan-2-ol]",≤ 0.5,,> 80
"OC(Cn1cnnn1)(c1ccc(F)cc1F)C(F)(F)c1ccc(-c2ccc(C(F)(F)F)cc2)nn1 (stereo not drawn) [Compound 56, 2-(2,4-Difluorophenyl)-1,1-difluoro-3-(1H-tetrazol-1-yl)-1-(6-(4-(trifluoromethyl)phenyl)pyridazin-3-yl)propan-2-ol]",0.5 to 1.5,,> 80
"OC(Cn1cnnn1)(c1ccc(F)cc1F)C(F)(F)c1cnc(-c2ccc(OC(F)(F)F)cc2)cn1 (stereo not drawn) [Compound 42, 2-(2,4-Difluorophenyl)-1,1-difluoro-3-(1H-tetrazol-1-yl)-1-(5-(4-(trifluoromethoxy)phenyl)pyrazin-2-yl)propan-2-ol]",≤ 0.5,,> 80
"OC(Cn1cnnn1)(c1ccc(F)cc1F)C(F)(F)c1ccc2cc(Cl)ccc2n1 (stereo not drawn) [4(−), 1-(6-Chloroquinolin-2-yl)-2-(2,4-difluorophenyl)-1,1-difluoro-3-(1H-tetrazol-1-yl)propan-2-ol]",≤ 0.5,,> 80
"OC(Cn1cnnn1)(c1ccc(F)cc1F)C(F)(F)c1ccc2cc(Br)ccc2n1 (stereo not drawn) [9(+), 1-(6-Bromoquinolin-2-yl)-2-(2,4-difluorophenyl)-1,1-difluoro-3-(1H-tetrazol-1-yl)propan-2-ol]",≤ 0.5,,> 80
"OC(Cn1ncnn1)(c1cc(F)ccc1F)C(F)(F)c1ccc2cc(Cl)ccc2n1 (stereo not drawn) [Compound 28, 1-(6-Chloroquinolin-2-yl)-2-(2,5-difluorophenyl)-1,1-difluoro-3-(2H-tetrazol-2-yl)propan-2-ol]",≤ 0.5,,> 80
"OC(Cn1cnnn1)(c1ccc(F)cc1F)C(F)(F)c1ccc(-c2ccc(OC(F)(F)F)cc2)nn1 (stereo not drawn) [Compound 57, 2-(2,4-Difluorophenyl)-1,1-difluoro-3-(1H-tetrazol-1-yl)-1-(6-(4-(trifluoromethoxy)phenyl)pyridazin-3-yl)propan-2-ol]",≤ 0.5,,> 80
"OC(Cn1cnnn1)(c1ccc(F)cc1F)C(F)(F)c1ccc2cc(C(F)(F)F)ccc2n1 (stereo not drawn) [Compound 18, 2-(2,4-Difluorophenyl)-1,1-difluoro-3-(1H-tetrazol-1-yl)-1-(6-(trifluoromethyl)quinolin-2-yl)propan-2-ol]",≤ 0.5,,> 80
"OC(Cn1cnnn1)(c1ccc(F)cc1F)C(F)(F)c1cnc(-c2ccc(F)cc2)cn1 (stereo not drawn) [Compound 46, 2-(2,4-Difluorophenyl)-1,1-difluoro-1-(5-(4-fluorophenyl)pyrazin-2-yl)-3-(1H-tetrazol-1-yl)propan-2-ol]",0.5 to 1.5,,

# The next lines start with results.
MIC [1] [µg/mL],MIC [3] [µg/mL],SMILES,disease control [2] [%]
≤ 0.5,,"COc1ccc(-c2cnc(C(F)(F)C(O)(Cn3cnnn3)c3ccc(F)cc3F)cn2)cc1 (stereo not drawn) [Compound 48, 2-(2,4-Difluorophenyl)-1,1-difluoro-1-(5-(4-methoxyphenyl)pyrazin-2-yl)-3-(1H-tetrazol-1-yl)propan-2-ol]",> 80
≤ 0.5,,"OC(Cn1cnnn1)(c1ccc(F)cc1F)C(F)(F)c1cnc(-c2ccc(OC(F)F)cc2)cn1 (stereo not drawn) [Compound 39, 1-(5-(4-(Difluoromethoxy)phenyl)pyrazin-2-yl)-2-(2,4-difluorophenyl)-1,1-difluoro-3-(1H-tetrazol-1-yl)propan-2-ol]",> 80
≤ 0.5,,"OC(Cn1cnnn1)(c1ccc(F)cc1F)C(F)(F)c1cnc2cc(Br)ccc2n1 (stereo not drawn) [Compound 38, 1-(6-Bromoquinoxalin-2-yl)-2-(2,4-difluorophenyl)-1,1-difluoro-3-(1H-tetrazol-1-yl)propan-2-ol]",> 80
≤ 0.5,,"OC(Cn1cnnn1)(c1ccc(F)cc1F)C(F)(F)c1cnc(-c2ccc(Br)cc2)cn1 (stereo not drawn) [Compound 43, 1-(5-(4-Bromophenyl)pyrazin-2-yl)-2-(2,4-difluorophenyl)-1,1-difluoro-3-(1H-tetrazol-1-yl)propan-2-ol]",> 80
≤ 0.5,,"OC(Cn1cnnn1)(c1ccc(F)cc1F)C(F)(F)c1ccc(Br)s1 (stereo not drawn) [Compound 13, 1-(5-Bromothiophen-2-yl)-2-(2,4-difluorophenyl)-1,1-difluoro-3-(1H-tetrazol-1-yl)propan-2-ol]",> 80
≤ 0.5,,"OC(Cn1cnnn1)(c1ccc(F)cc1F)C(F)(F)c1nc2ccc(Cl)cc2s1 (stereo not drawn) [Compound 11, 1-(6-Chlorobenzo[d]thiazol-2-yl)-2-(2,4-difluorophenyl)-1,1-difluoro-3-(1H-tetrazol-1-yl)propan-2-ol]",> 80
≤ 0.5,,"Cc1ccc2nc(C(F)(F)C(O)(Cn3cnnn3)c3ccc(F)cc3F)ccc2c1 (stereo not drawn) [Compound 26, 2-(2,4-Difluorophenyl)-1,1-difluoro-1-(6-methylquinolin-2-yl)-3-(1H-tetrazol-1-yl)propan-2-ol]",> 80
≤ 0.5,,"OC(Cn1cnnn1)(c1ccc(F)cc1F)C(F)(F)c1ccc2cc(C(F)F)ccc2n1 (stereo not drawn) [Compound 25, 1-(6-(Difluoromethyl)quinolin-2-yl)-2-(2,4-difluorophenyl)-1,1-difluoro-3-(1H-tetrazol-1-yl)propan-2-ol]",> 80
,0.016,"C[C@@H](c1ncncc1F)[C@](O)(Cn1cncn1)c1ccc(F)cc1F [Voriconazole, reference compound]",
≤ 0.5,,"OC(Cn1cnnn1)(c1ccc(F)cc1F)C(F)(F)c1nc2ccc(Br)cc2s1 (stereo not drawn) [Compound 27, 1-(6-Bromobenzo[d]thiazol-2-yl)-2-(2,4-difluorophenyl)-1,1-difluoro-3-(1H-tetrazol-1-yl)propan-2-ol]",> 80
0.5 to 1.5,,"OC(Cn1cnnn1)(c1ccc(F)cc1F)C(F)(F)c1cccs1 (stereo not drawn) [Compound 14, 2-(2,4-Difluorophenyl)-1,1-difluoro-3-(1H-tetrazol-1-yl)-1-(thiophen-2-yl)propan-2-ol]",
